The record followed here is ChEMBL document CHEMBL5244227, “Applications of fluorine-containing amino acids for drug design” (Eur J Med Chem, 2020).

Series [1] in a line: Inhibition of HCV NS3/4A protease. The arrangement: species or system Hepacivirus hominis.
Series [2] is described as follows: Oral bioavailability in rat. It counts as ADME, organism-based. As to conditions: in vivo.
Series [3] is described as follows: Binding affinity to CGRP (unknown origin). The arrangement: species or system Homo sapiens.
Series [4] has as its target ATP-dependent translocase ABCB1 (Homo sapiens, UniProt P08183). Put plainly: Substrate activity at human P-gp assessed as transport ratio.
Another series deals with Hepatitis C virus. Put plainly: Antiviral activity against HCV. The class given is functional, organism-based, Hepacivirus hominis.
The nature of series [5]: In vivo inhibition of BACE-1 in wild type Hartley guinea pig assessed as reduction in amyloid beta level in cortex at 30 mg/kg, po administered twice daily for 2.5 days. As to conditions: Cavia porcellus, 60 h, time 2.5 day. It counts as functional.
The nature of series [6]: In vivo inhibition of BACE-1 in wild type Hartley guinea pig assessed as reduction in amyloid beta level in cerebrospinal fluid at 30 mg/kg, po administered twice daily for 2.5 days. The class given is functional. As to conditions: Cavia porcellus, 60 h, time 2.5 day.
For the next series, the system named is Plasmodium berghei. Put plainly: Antimalarial activity against Plasmodium berghei infected in mouse model infected with assessed as reduction in parasitemia at 100 mg/kg. It counts as functional. The arrangement: scale not given: the % may be the effect or the level left.

The structures appear in SMILES notation.

ATP-dependent translocase ABCB1, sequence (P08183 whole entry): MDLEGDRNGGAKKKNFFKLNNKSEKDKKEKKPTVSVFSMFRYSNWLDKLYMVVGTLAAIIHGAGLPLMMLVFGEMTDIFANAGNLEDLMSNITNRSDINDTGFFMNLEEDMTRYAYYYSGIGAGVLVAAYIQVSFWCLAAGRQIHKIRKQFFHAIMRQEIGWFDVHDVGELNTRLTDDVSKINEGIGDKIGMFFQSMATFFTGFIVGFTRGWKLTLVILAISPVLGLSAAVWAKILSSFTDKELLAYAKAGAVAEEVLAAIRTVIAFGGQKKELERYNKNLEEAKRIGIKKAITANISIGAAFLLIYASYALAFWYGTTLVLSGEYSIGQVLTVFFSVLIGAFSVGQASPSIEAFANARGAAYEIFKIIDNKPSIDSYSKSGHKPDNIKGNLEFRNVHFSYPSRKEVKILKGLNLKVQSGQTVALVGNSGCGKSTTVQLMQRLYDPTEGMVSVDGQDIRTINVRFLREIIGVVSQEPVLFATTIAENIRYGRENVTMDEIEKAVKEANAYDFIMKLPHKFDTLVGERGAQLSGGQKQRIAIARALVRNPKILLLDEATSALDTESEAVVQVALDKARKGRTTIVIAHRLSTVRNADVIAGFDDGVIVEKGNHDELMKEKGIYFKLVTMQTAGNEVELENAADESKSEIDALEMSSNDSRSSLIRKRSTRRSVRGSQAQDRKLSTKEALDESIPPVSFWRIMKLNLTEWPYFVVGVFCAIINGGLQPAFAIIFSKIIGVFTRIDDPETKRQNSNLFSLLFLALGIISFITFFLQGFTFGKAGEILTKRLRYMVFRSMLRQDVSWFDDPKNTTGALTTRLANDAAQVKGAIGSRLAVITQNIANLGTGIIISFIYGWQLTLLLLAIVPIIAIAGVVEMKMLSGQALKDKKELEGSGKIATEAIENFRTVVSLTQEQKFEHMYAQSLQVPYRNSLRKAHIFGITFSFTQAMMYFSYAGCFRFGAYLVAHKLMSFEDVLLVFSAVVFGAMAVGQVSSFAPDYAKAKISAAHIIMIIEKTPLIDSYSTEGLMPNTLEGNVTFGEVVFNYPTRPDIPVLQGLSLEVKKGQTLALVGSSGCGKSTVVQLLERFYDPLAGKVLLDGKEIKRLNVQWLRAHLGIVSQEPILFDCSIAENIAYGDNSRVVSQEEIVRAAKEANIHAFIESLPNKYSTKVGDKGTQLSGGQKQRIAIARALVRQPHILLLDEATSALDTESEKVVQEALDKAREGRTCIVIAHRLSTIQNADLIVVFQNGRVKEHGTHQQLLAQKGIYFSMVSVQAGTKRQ

As for `CC[C@H](NC(=O)[C@@H]1C[C@@H](Oc2ncc(OC)c3ccc(Cl)cc23)CN1C(=O)C(NC(=O)OC(C)(C)C)C(C)(C)C)C(=O)NS(=O)(=O)C1CC1` (single isomer, unassigned), the half-maximal inhibitory concentration (IC50) (usually the concentration that inhibits the measured activity by half) in series [1] was 3080 nM.
On the same count and under the same terms, under `COc1cnc(O[C@@H]2C[C@@H](C(=O)N[C@@H](CC(F)F)C(=O)NS(=O)(=O)C3CC3)N(C(=O)C(NC(=O)OC(C)(C)C)C(C)(C)C)C2)c2cc(Cl)ccc12` (single isomer, unassigned) stands 976 nM.
On to `C=C[C@@H]1C[C@]1(NC(=O)[C@@H]1C[C@@H](Oc2cc(-c3csc(NC(C)C)n3)nc3cc(OC)ccc23)CN1C(=O)[C@@H](NC(=O)OC1CCCC1)C(C)(C)C)P(=O)(O)Cc1ccccc1`, for which the bioavailability (usually dose-corrected exposure relative to a reference, in per cent) in series [2] was 0.5%.
As for `COc1cnc(O[C@@H]2C[C@@H](C(=O)N[C@]3(C(=O)NS(=O)(=O)C4CC4)C[C@H]3C(F)(F)F)N(C(=O)C(NC(=O)OC(C)(C)C)C(C)(C)C)C2)c2cc(Cl)ccc12` (single isomer, unassigned), the IC50 in series [1] worked out at 17 nM.
As to `O=C(CN1C(=O)C2(CCCC2)NC[C@@H]1c1cc(F)cc(F)c1)Nc1ccc2c(c1)C[C@@]1(C2)C(=O)Nc2ncccc21`, affinity in series [3] was put at a Ki of 0.57 nM.
On to `COc1cnc(O[C@@H]2C[C@@H](C(=O)N[C@]3(C(=O)NS(=O)(=O)C4CC4)C[C@H]3C)N(C(=O)C(NC(=O)OC(C)(C)C)C(C)(C)C)C2)c2cc(Cl)ccc12` (single isomer, unassigned), for which the IC50 in series [1] came to 13 nM.
With `NCCCC[C@H](NC(=O)[C@@H](Cc1cc(Br)c(O)c(Br)c1)NC(=O)N1CCC(N2Cc3ccccc3NC2=O)CC1)C(=O)N1CCN(c2ccncc2)CC1` [OLCEGEPANT], in series [3], the Ki (in general, the equilibrium dissociation constant of an inhibitor or competing ligand from its target) was 0.01 nM.
Turning to `C[C@@]1(c2cc(F)cc(F)c2)CN([11CH3])C2(CCCC2)C(=O)N1CC(=O)Nc1ccc2c(c1)C[C@@]1(C2)C(=O)Nc2ncccc21`, in series [4], the Ratio is reported as 1.7.
In the case of `COc1ccc2c(O[C@@H]3C[C@H]4C(=O)N[C@]5(P(=O)(O)Cc6ccccc6)C[C@H]5/C=C/CCCCC[C@H](NC(=O)OC5CCCC5)C(=O)N4C3)cc(-c3csc(NC(C)C)n3)nc2c1`, the concentration for a half-maximal effect (EC50) (commonly the concentration at which the effect is half-maximal) with Hepatitis C virus came to 10 nM.
For the compound `O=C(CN1C(=O)C2(CCCC2)NC[C@@H]1c1ccccc1)Nc1ccc2c(c1)C[C@@]1(C2)C(=O)Nc2ncccc21`, the affinity in series [3], expressed as Ki, was 0.067 nM.
In the case of `CC(=O)N[C@@H](Cc1cc(F)cc(F)c1)[C@H](O)CNC1(c2cccc(C(C)(C)C(F)F)c2)CC1`, the inhibition in vivo (commonly the change of the read-out against control, counted positive when it falls) at 30 mg/kg is 28% in series [5] and 32% in series [6].
In series [3], `O=C(CN1C(=O)C2(CCCC2)NC[C@H]1c1cc(F)cc(F)c1)Nc1ccc2c(c1)C[C@@]1(C2)C(=O)Nc2ncccc21` [MK3207] showed an inhibition constant (Ki) of 0.017 nM.
Consider `COc1cnc(O[C@@H]2C[C@@H](C(=O)N[C@]3(C(=O)NS(=O)(=O)C4CC4)C[C@H]3CC(F)F)N(C(=O)C(NC(=O)OC(C)(C)C)C(C)(C)C)C2)c2cc(Cl)ccc12` (single isomer, unassigned), for which half-maximal inhibition in series [1] (IC50) was put at 1 nM.
Regarding `COc1ccc2c(O[C@@H]3C[C@H]4C(=O)N[C@]5(C(=O)NS(=O)(=O)C6CC6)C[C@H]5/C=C\CCCCN(C)C(=O)[C@@H]4C3)cc(-c3nc(C(C)C)cs3)nc2c1C`, the EC50 in series [1] turned out to be 8.1 nM.
For `CC1CCc2c([nH]c3ccccc23)C2(N1)C(=O)Nc1ccc(Cl)cc12` (stereo not given), the Activity in the series with Plasmodium berghei is 96%.
With `COc1ccc2c(O[C@@H]3C[C@H]4C(=O)N[C@]5(P(=O)(O)Cc6c(F)cccc6F)C[C@H]5CCCCCCC[C@H](NC(=O)OC5CCCC5)C(=O)N4C3)cc(-c3csc(NC(C)C)n3)nc2c1Cl` [GS-9256], in series [1], the IC50 was 4 nM and the inhibitory constant (Ki) was 0.089 nM. For the same compound, a half-maximal response with Hepatitis C virus (EC50) required 20 nM.
In series [1], `COc1ccc2c(O[C@@H]3C[C@H]4C(=O)N[C@]5(C(=O)NS(=O)(=O)C6CC6)C[C@@]5(F)/C=C\CCCCN(C)C(=O)[C@@H]4C3)cc(-c3nc(C(C)C)cs3)nc2c1C` registered an EC50 of 15000 nM.
